What all share (assay): NCI anticancer screen, dose series, 48 h
Assay [1] has as its system SNB-19 CNS.
Assay [2] deals with 786-0 renal.
Assay [3] relates to HCT-116 colon.
In assay [4] the test system is SNB-75 CNS.
In assay [5] the test system is HCT-15 colon.
The subject of assay [6] is PC-3 prostate.
The test system of assay [7] is SF-539 CNS.
Assay [8] has as its system RPMI-8226 leukemia.
The subject of assay [9] is DU-145 prostate.
Assay [10] concerns CCRF-CEM leukemia.

Values joined by “and” are separate entries in the source; they are usually repeats but may differ in a detail not shown here. Equal values may be shown once.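 Compound exposure: 48 hours, 5 concentrations, 96-well plates. GI50 = concentration required for 50% inhibition of growth. TGI is the concentration that stops growth completely.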

`CCCCCC/C=C\CCCCCCCCCC1=C(CN2CCN(C)CC2)C(=O)C=C(OC)C1=O`: the TGI in assay [1] came out at 24.1 µM; in assay [2] it was 2.9 µM; in assay [3] it was 4.41 µM; in assay [4] it was 16.6 µM; in assay [5] it was 7.87 µM; in assay [6] it was 10.5 µM. The TGI turned out to be 40.1 µM in [7], 3.9 µM in assay [8], 26.2 µM in [9] and 1.95 µM in [10].
For the compound `O=[N+]([O-])c1cc([N+](=O)[O-])c(Nn2c3ccccc3c3ccccc32)c([N+](=O)[O-])c1`, the GI50 in assay [1] was 0.376 µM; in assay [2], 0.324 µM; in assay [3], 0.302 µM; in assay [4], 0.204 µM; in [5] it was 0.377 µM; in assay [6], 0.316 µM. The GI50 is 0.335 µM in assay [7], 0.442 µM in assay [9] and 0.355 µM in assay [10]. Moreover, the TGI was 54 µM and > 100 µM in assay [1]; 13.1 µM and 15.9 µM in assay [2]; 1.18 µM in [3]; 0.92 µM in assay [4]; 11.8 µM and 3.97 µM in [5]; 7.37 µM and 11.3 µM in assay [6]. The TGI in [7] was 15.8 µM and 5.1 µM; in [8], 0.56 µM; in assay [9], 20.1 µM and 18.7 µM; in [10], more than 100 µM.
On to `C=CCC(N[C@H](CO)c1ccccc1)c1cn(Cc2ccccc2Cl)c(=O)n(Cc2ccccc2Cl)c1=O` (stereo not given in full), for which the GI50 was 35.7 µM in assay [1]; 12.7 µM in assay [2]; 6.44 µM in assay [3]; 16.6 µM in assay [4]; 9.27 µM in assay [5]; 4.03 µM in assay [6]. For the same compound, the GI50 in assay [7] is 15 µM; in assay [8], 3.73 µM; in [9] it was 23.5 µM; in assay [10] it was 10.6 µM. In addition, the TGI is more than 100 µM in assay [1]; 64.1 µM in [2]; 20.8 µM in assay [3]; 64.8 µM in assay [4]; 35.2 µM in assay [5]; 26.7 µM in assay [6]. The TGI was found to be 32.5 µM in [7], 12.5 µM in [8], 95.5 µM in assay [9] and 42.5 µM in assay [10].
On to `Oc1c(Cl)cc(Cl)c2ccc(Cn3cc(-c4ccc(C(F)(F)F)cc4)nn3)nc12`, for which the GI50 is 8.94 µM in assay [1]; 1.82 µM in assay [2]; 0.692 µM in assay [3]; 1.74 µM in assay [4]; 1.42 µM in assay [5]; 3 µM in assay [6]. Besides, the GI50 is 1.52 µM in [7], 1.25 µM in assay [8], 1.7 µM in assay [9] and 0.357 µM in [10]. For the same compound, the TGI in [1] worked out at 22.8 µM; in assay [2], 4.59 µM; in assay [3], 2.57 µM; in assay [4] it was 10.8 µM; in assay [5], 3.3 µM; in [6], 11.1 µM. For the same compound, the TGI is 2.94 µM in assay [7], 6.33 µM in [8], 3.33 µM in [9] and more than 100 µM in [10].
For `CCCCCCCC/C=C/CCCCCCCC1=NC(C)(C)CN1CCO`, the GI50 is 6.26 µM in assay [1]; 1.73 µM in assay [2]; 1.59 µM in assay [3]; 1.83 µM in [4]; 1.58 µM in assay [5]; 2.19 µM in [6]. For the same compound, the GI50 in [7] was 1.68 µM; in assay [8], 2.02 µM; in assay [9], 1.72 µM; in assay [10], 2.22 µM. For the same compound, the TGI in assay [1] was 21.5 µM; in assay [2] it was 3.14 µM; in assay [3], 2.99 µM; in assay [4], 4.26 µM; in assay [5], 3.16 µM; in assay [6], 9.38 µM. The TGI in assay [7] was determined as 3.07 µM; in [8], 4.31 µM; in assay [9], 3.09 µM; in [10], 6.75 µM.
On to `CCN(CC)CCCC(C)N/C(=C1\C(=O)NC(=O)\C1=C(/NC(C)CCCN(CC)CC)c1cccc(OC)c1)c1cccc(OC)c1` (stereo not given), for which the GI50 is 1.99 µM in assay [1]; 0.833 µM in assay [2]; 0.45 µM in [3]; 0.735 µM in assay [4]; 0.764 µM in assay [5]; 0.877 µM in [6]. For the same compound, the GI50 in assay [7] was 0.791 µM; in assay [8], 0.949 µM; in [9] it was 1.02 µM; in [10] it was 0.816 µM. For the same compound, the TGI turned out to be 9.01 µM in assay [1]; 2.64 µM in [2]; 3.24 µM in assay [3]; 1.67 µM in assay [4]; 4.07 µM in [5]; 2.56 µM in assay [6]. For the same compound, the TGI stood at 1.51 µM in assay [7], 2.29 µM in [8], 4.5 µM in assay [9] and 2.89 µM in assay [10].
On to `CCOC(=O)C(C#N)C1=CC(=O)C(=O)c2ccc(O)cc21` (stereo not given), for which the TGI in assay [1], in assay [2], in [3], in [4], in assay [5] and in assay [6] was more than 100 µM throughout. Also, the TGI in assay [7], in assay [8], in [9] and in assay [10] was more than 100 µM each time.
With `CCOc1ccn(-c2ccc(F)cc2)c(=O)c1C(=O)Nc1ccc(Oc2ccnc(N)c2Cl)c(F)c1`, the GI50 in [1] was 27.8 µM; in assay [2] it was 19 µM; in assay [3] it was 5.35 µM; in assay [4] it was 2.39 µM; in assay [5], 10.6 µM; in assay [6], 9.02 µM. For the same compound, the GI50 in assay [7] is 7.53 µM; in assay [8], 14.6 µM; in assay [9], 21.1 µM; in [10] it was 3.63 µM. Besides, the TGI in assay [1] was more than 100 µM; in assay [2] it was more than 100 µM; in assay [3], 21.8 µM; in assay [4] it was 22.5 µM; in assay [5], more than 79.6 µM; in assay [6] it was more than 100 µM. For the same compound, the TGI in [7] is 34.1 µM; in assay [8], more than 88.8 µM; in [9] it was more than 100 µM; in [10] it was 36.9 µM.
Regarding `COc1cc(C(=O)c2cnc(-c3cccc4[nH]ccc34)[nH]2)cc(OC)c1OC`, the GI50 was 0.0465 µM and < 0.01 µM in [1]; 0.0673 µM and < 0.01 µM in [3]; 0.0295 µM and < 0.01 µM in assay [4]; 0.0915 µM and < 0.01 µM in assay [5]; 0.0457 µM and < 0.01 µM in assay [6]; 0.0278 µM and < 0.01 µM in [7]. Besides, in assay [9], the GI50 was 0.0996 µM and < 0.01 µM. Further, the TGI in assay [1], in assay [2], in [3], in assay [4], in [5] and in assay [6] was more than 100 µM in each case. Besides, the TGI in assay [8] was 24.3 µM; in assay [9] it was more than 100 µM; in [10], more than 100 µM.
As to `CC[C@@H](C)/C=C(C)/C=C/C(=O)c1c(O)c(-c2ccc(O)cc2)cn(O)c1=O`, the GI50 is 0.575 µM in [1]; 0.361 µM in assay [2]; 0.395 µM in assay [3]; 1.38 µM in assay [4]; 0.396 µM in assay [5]; 3.2 µM in assay [6]. Besides, the GI50 in [7] is 0.369 µM; in [8] it was 0.504 µM; in assay [9], 0.496 µM; in assay [10], 0.314 µM. Moreover, the TGI in assay [1] was found to be 16.3 µM; in [2], 5.17 µM; in assay [3] it was 13 µM; in [4] it was 15.7 µM; in [5], 16.1 µM; in assay [6], 18.8 µM. Besides, the TGI in assay [7] came out at 5.83 µM; in [8], 18 µM; in assay [9], 13.8 µM; in [10], 13.1 µM.
Turning to `O=C1O/C(=C/c2ccccc2)C(c2ccccc2)=C1O`, the TGI in assay [1], in assay [2], in [3], in assay [4], in [5] and in assay [6] was more than 100 µM each time. The TGI in assay [7] was more than 100 µM; in assay [8], 83.3 µM; in [9], 97 µM; in [10] it was more than 100 µM.
In the case of `COC(=O)c1oc2c(C(=O)/C=C/c3ccc(OC)cc3)c(OCCN(C)C)ccc2c1C`, the GI50 in [1] was 10.9 µM; in [2] it was 9.4 µM; in assay [3] it was 4.64 µM; in assay [4] it was 9.94 µM; in assay [5], 4.13 µM; in assay [6], 8.43 µM. For the same compound, the GI50 is 11.3 µM in assay [7], 3.83 µM in assay [8], 2.82 µM in assay [9] and 2.24 µM in [10]. The TGI was 23.5 µM in [1]; 22.3 µM in [2]; 19.7 µM in assay [3]; 22.2 µM in assay [4]; 16.8 µM in assay [5]; 21.7 µM in assay [6]. Moreover, the TGI came to 24.1 µM in [7], 20.5 µM in assay [8], 10.7 µM in assay [9] and 6.93 µM in assay [10].
For `Cn1cc(-c2cnn3c(N)c(Br)c(C4CCCNC4)nc23)cn1` (stereo not given), the GI50 was 18.4 µM in [1]; 1.62 µM in [2]; 6.04 µM in assay [3]; 0.464 µM in assay [4]; 14.2 µM in [5]; 5.26 µM in [6]. Besides, the GI50 is 0.285 µM in assay [7], 4.7 µM in [8], 3.2 µM in assay [9] and 0.631 µM in assay [10]. Besides, the TGI in [1] is more than 100 µM; in [2] it was 60.6 µM; in [3] it was 24.6 µM; in assay [4] it was 39.1 µM; in assay [5] it was more than 79.9 µM; in assay [6], more than 86.2 µM. For the same compound, the TGI was 3.88 µM in [7], 27.2 µM in assay [8], 65 µM in [9] and 38.9 µM in assay [10].
Turning to `C/C=C1/CC(C)C(C)(O)C(=O)OCC2C(O)CN3CCC(OC1=O)C23` (stereo not given), the TGI in assay [1], in assay [2], in assay [3], in [4], in assay [5] and in [6] was more than 100 µM throughout. In addition, the TGI in assay [7], in assay [8], in [9] and in assay [10] was more than 100 µM throughout.

Values taken from PubChem BioAssay (NCI).
